# Source: US20230085307A1, “PYRIDAZINONE COMPOUND AND HERBICIDE” (NISSAN CHEMICAL CORPORATION, priority 2019, published 2023)
# Tests used:
# southern crabgrass [1] = assay: Test Example 4: herbicidal effect by soil treatment (Table 19, symbol F); type: in vivo, southern crabgrass (Digitaria ciliaris); details: amount of applied herbicide 320 g/ha
# Method in brief: (§1)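 Soil-surface application: an emulsion agent diluted with water to the predetermined dose is sprayed uniformly over seeds lying under roughly 1.5 cm of sterilized diluvial soil. Boxes stay in a greenhouse at 25° C. to 30° C. Three weeks later, each species is graded on previously defined criteria.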
# green foxtail [2] = assay: Test Example 4: herbicidal effect by soil treatment (Table 19, symbol G); type: in vivo, green foxtail (Setaria viridis); details: amount of applied herbicide 320 g/ha
# Method in brief: as §1
# chickweed [3] = assay: Test Example 5: herbicidal effect by foliage application, plastic box (Table 20, symbol P); type: in vivo, common chickweed (Stellaria media); details: foliage application, 320 g/ha
# Method in brief: (§2)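 Sow seeds spot-wise in sterilized diluvial soil; cover with ~1.5 cm soil. Grow 14 days in greenhouse, 25° C. to 30° C. Spray foliage with emulsion diluted to predetermined amount. Rate effect after 3 weeks.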
# Italian ryegrass [4] = assay: Test Example 4: herbicidal effect by soil treatment (Table 19, symbol K); type: in vivo, Italian ryegrass (Lolium multiflorum); details: amount of applied herbicide 320 g/ha
# Method in brief: as §1
# velvetleaf [5] = assay: Test Example 5: herbicidal effect by foliage application, plastic box (Table 20, symbol M); type: in vivo, velvetleaf (Abutilon theophrasti); details: foliage application, 320 g/ha
# Method in brief: as §2
# chickweed [6] = assay: Test Example 4: herbicidal effect by soil treatment (Table 19, symbol P); type: in vivo, common chickweed (Stellaria media); details: amount of applied herbicide 320 g/ha
# Method in brief: as §1
# windgrass [7] = assay: Test Example 5: herbicidal effect by foliage application, plastic box (Table 20, symbol L); type: in vivo, windgrass (Apera spica-venti); details: foliage application, 320 g/ha
# Method in brief: as §2
# green foxtail [8] = assay: Test Example 5: herbicidal effect by foliage application, plastic box (Table 20, symbol G); type: in vivo, green foxtail (Setaria viridis); details: foliage application, 320 g/ha
# Method in brief: as §2
# Chinese sprangletop = assay: Test Example 3: herbicidal effect by foliage application, Wagner pot (Table 18, symbol D); type: in vivo, chinese sprangletop (Leptochloa chinensis); details: amount of applied herbicide 320 g/ha
# Method in brief: (§3)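 Plants were sown in alluvial soil held under 0.1–0.5 cm standing water and grown 14 days in a greenhouse at 25–30 °C. An emulsifiable formulation, water-diluted to the set dose, was then sprayed onto the foliage, and effects were scored three weeks later using previously defined criteria.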
# southern crabgrass [9] = assay: Test Example 5: herbicidal effect by foliage application, plastic box (Table 20, symbol F); type: in vivo, southern crabgrass (Digitaria ciliaris); details: foliage application, 320 g/ha
# Method in brief: as §2
# barnyard grass [10] = assay: Test Example 5: herbicidal effect by foliage application, plastic box (Table 20, symbol H); type: in vivo, barnyard grass (Echinochloa crus-galli); details: foliage application, 320 g/ha
# Method in brief: as §2
# windgrass [11] = assay: Test Example 4: herbicidal effect by soil treatment (Table 19, symbol L); type: in vivo, windgrass (Apera spica-venti); details: amount of applied herbicide 320 g/ha
# Method in brief: as §1
# oval-leafed pondweed [12] = assay: Test Example 1: herbicidal activity, application before weed generation under submerged conditions (Table 16, symbol C); type: in vivo, oval-leafed pondweed (Monochoria vaginalis); details: amount of applied herbicide 320 g/ha
# Method in brief: (§4)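 Submerged Wagner pots (alluvial soil, 4 cm water) sown with weed seeds and planted with 2.5-leaf rice seedlings; emulsifiable concentrate diluted in water applied to water surface on sowing day. Held in greenhouse at 25-30 °C; injury scored 0-5 by herbicidal rate after three weeks.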
# lambsquarters [13] = assay: Test Example 5: herbicidal effect by foliage application, plastic box (Table 20, symbol O); type: in vivo, lambsquarters (Chenopodium album); details: foliage application, 320 g/ha
# Method in brief: as §2
# wild oat [14] = assay: Test Example 5: herbicidal effect by foliage application, plastic box (Table 20, symbol I); type: in vivo, wild oat (Avena fatua); details: foliage application, 320 g/ha
# Method in brief: as §2
# late watergrass [15] = assay: Test Example 1: herbicidal activity, application before weed generation under submerged conditions (Table 16, symbol A); type: in vivo, late watergrass (Echinochloa oryzicola); details: amount of applied herbicide 320 g/ha
# Method in brief: as §4
# redroot pigweed [16] = assay: Test Example 5: herbicidal effect by foliage application, plastic box (Table 20, symbol N); type: in vivo, redroot pigweed (Amaranthus retroflexus); details: foliage application, 320 g/ha
# Method in brief: as §2
# lambsquarters [17] = assay: Test Example 4: herbicidal effect by soil treatment (Table 19, symbol O); type: in vivo, lambsquarters (Chenopodium album); details: amount of applied herbicide 320 g/ha
# Method in brief: as §1
# velvetleaf [18] = assay: Test Example 4: herbicidal effect by soil treatment (Table 19, symbol M); type: in vivo, velvetleaf (Abutilon theophrasti); details: amount of applied herbicide 320 g/ha
# Method in brief: as §1
# barnyard grass [19] = assay: Test Example 3: herbicidal effect by foliage application, Wagner pot (Table 18, symbol H); type: in vivo, barnyard grass (Echinochloa crus-galli); details: amount of applied herbicide 320 g/ha
# Method in brief: as §3
# redroot pigweed [20] = assay: Test Example 4: herbicidal effect by soil treatment (Table 19, symbol N); type: in vivo, redroot pigweed (Amaranthus retroflexus); details: amount of applied herbicide 320 g/ha
# Method in brief: as §1
# persian speedwell [21] = assay: Test Example 4: herbicidal effect by soil treatment (Table 19, symbol R); type: in vivo, Persian speedwell (Veronica persica); details: amount of applied herbicide 320 g/ha
# Method in brief: as §1
# Italian ryegrass [22] = assay: Test Example 5: herbicidal effect by foliage application, plastic box (Table 20, symbol K); type: in vivo, Italian ryegrass (Lolium multiflorum); details: foliage application, 320 g/ha
# Method in brief: as §2
# barnyard grass [23] = assay: Test Example 4: herbicidal effect by soil treatment (Table 19, symbol H); type: in vivo, barnyard grass (Echinochloa crus-galli); details: amount of applied herbicide 320 g/ha
# Method in brief: as §1
# false cleavers = assay: Test Example 5: herbicidal effect by foliage application, plastic box (Table 20, symbol Q); type: in vivo, false cleavers (Galium spurium); details: foliage application, 320 g/ha
# Method in brief: as §2
# persian speedwell [24] = assay: Test Example 5: herbicidal effect by foliage application, plastic box (Table 20, symbol R); type: in vivo, Persian speedwell (Veronica persica); details: foliage application, 320 g/ha
# Method in brief: as §2
# rice flat sedge = assay: Test Example 3: herbicidal effect by foliage application, Wagner pot (Table 18, symbol E); type: in vivo, rice flat sedge (Cyperus iria); details: amount of applied herbicide 320 g/ha
# Method in brief: as §3
# wild oat [25] = assay: Test Example 4: herbicidal effect by soil treatment (Table 19, symbol I); type: in vivo, wild oat (Avena fatua); details: amount of applied herbicide 320 g/ha
# Method in brief: as §1
# blackgrass [26] = assay: Test Example 5: herbicidal effect by foliage application, plastic box (Table 20, symbol J); type: in vivo, blackgrass (Alopecurus myosuroides); details: foliage application, 320 g/ha
# Method in brief: as §2
# blackgrass [27] = assay: Test Example 4: herbicidal effect by soil treatment (Table 19, symbol J); type: in vivo, blackgrass (Alopecurus myosuroides); details: amount of applied herbicide 320 g/ha
# Method in brief: as §1
# Japanese bulrush [28] = assay: Test Example 1: herbicidal activity, application before weed generation under submerged conditions (Table 16, symbol B); type: in vivo, Japanese bulrush (Schoenoplectus juncoides); details: amount of applied herbicide 320 g/ha
# Method in brief: as §4
# oval-leafed pondweed [29] = assay: Test Example 2: herbicidal activity, application during weed generation under submerged conditions (Table 17, symbol C); type: in vivo, oval-leafed pondweed (Monochoria vaginalis); details: AAH 320 g/ha; application during weed generation, submerged conditions
# Method in brief: (§5)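 Mixed weed seedlings in alluvial soil under a 4 cm water layer, greenhouse-grown at 25–30° C. Compound given as a diluted emulsion into the floodwater at the 1–2 leaf stage; response graded after three weeks.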
# late watergrass [30] = assay: Test Example 2: herbicidal activity, application during weed generation under submerged conditions (Table 17, symbol A); type: in vivo, late watergrass (Echinochloa oryzicola); details: AAH 320 g/ha; application during weed generation, submerged conditions
# Method in brief: as §5
# Japanese bulrush [31] = assay: Test Example 2: herbicidal activity, application during weed generation under submerged conditions (Table 17, symbol B); type: in vivo, Japanese bulrush (Schoenoplectus juncoides); details: AAH 320 g/ha; application during weed generation, submerged conditions
# Method in brief: as §5
# [32] = evaluated three weeks after application
structure (smiles),measurement,setting,value
Cc1nn(Cc2ccccc2)c(=O)c(-c2c(-c3ccc(F)cc3)sc3ccc(F)cc23)c1O [2-432],"herbicidal effect, F: southern crabgrass",southern crabgrass [1],0 (Herbicidal rate of 5% or less (almost no effect))
same,"herbicidal effect, G: green foxtail",green foxtail [2],1 (Herbicidal rate of 5% or more and less than 20%)
same,"P: chickweed, herbicidal effect grade",chickweed [3]; three weeks after application,5 (Herbicidal rate of 90% or more (almost completely withered))
same,"herbicidal effect, K: Italian ryegrass",Italian ryegrass [4],0 (Herbicidal rate of 5% or less (almost no effect))
same,"M: velvetleaf, herbicidal effect grade",velvetleaf [5]; three weeks after application,1 (Herbicidal rate of 5% or more and less than 20%)
same,"herbicidal effect, P: chickweed",chickweed [6],0 (Herbicidal rate of 5% or less (almost no effect))
same,"L: windgrass, herbicidal effect grade",windgrass [7]; three weeks after application,0 (Herbicidal rate of 5% or less (almost no effect))
same,"G: green foxtail, herbicidal effect grade",green foxtail [8]; three weeks after application,0 (Herbicidal rate of 5% or less (almost no effect))
same,herbicidal effect on D: Chinese sprangletop,Chinese sprangletop,0 (Herbicidal rate of 5% or less (almost no effect))
same,"F: southern crabgrass, herbicidal effect grade",southern crabgrass [9]; three weeks after application,3 (Herbicidal rate of 40% or more and less than 70%)
same,"H: barnyard grass, herbicidal effect grade",barnyard grass [10]; three weeks after application,1 (Herbicidal rate of 5% or more and less than 20%)
same,"herbicidal effect, L: windgrass",windgrass [11],0 (Herbicidal rate of 5% or less (almost no effect))
same,"Herbicidal effect, C: oval-leafed pondweed",oval-leafed pondweed [12],0 (Herbicidal rate of 5% or less (almost no effect))
same,"O: lambsquarters, herbicidal effect grade",lambsquarters [13]; three weeks after application,2 (Herbicidal rate of 20% or more and less than 40%)
same,"I: wild oat, herbicidal effect grade",wild oat [14]; three weeks after application,0 (Herbicidal rate of 5% or less (almost no effect))
same,"Herbicidal effect, A: late watergrass",late watergrass [15],2 (Herbicidal rate of 20% or more and less than 40%)
same,"N: redroot pigweed, herbicidal effect grade",redroot pigweed [16]; three weeks after application,5 (Herbicidal rate of 90% or more (almost completely withered))
same,"herbicidal effect, O: lambsquarters",lambsquarters [17],2 (Herbicidal rate of 20% or more and less than 40%)
same,"herbicidal effect, M: velvetleaf",velvetleaf [18],0 (Herbicidal rate of 5% or less (almost no effect))
same,herbicidal effect on H: barnyard grass,barnyard grass [19],3 (Herbicidal rate of 40% or more and less than 70%)
same,"herbicidal effect, N: redroot pigweed",redroot pigweed [20],3 (Herbicidal rate of 40% or more and less than 70%)
same,"herbicidal effect, R: persian speedwell",persian speedwell [21],0 (Herbicidal rate of 5% or less (almost no effect))
same,"K: Italian ryegrass, herbicidal effect grade",Italian ryegrass [22]; three weeks after application,0 (Herbicidal rate of 5% or less (almost no effect))
same,"herbicidal effect, H: barnyard grass",barnyard grass [23],0 (Herbicidal rate of 5% or less (almost no effect))
same,"Q: false cleavers, herbicidal effect grade",false cleavers; three weeks after application,3 (Herbicidal rate of 40% or more and less than 70%)
same,"R: persian speedwell, herbicidal effect grade",persian speedwell [24]; three weeks after application,5 (Herbicidal rate of 90% or more (almost completely withered))
same,herbicidal effect on E: rice flat sedge,rice flat sedge,2 (Herbicidal rate of 20% or more and less than 40%)
same,"herbicidal effect, I: wild oat",wild oat [25],0 (Herbicidal rate of 5% or less (almost no effect))
same,"J: blackgrass, herbicidal effect grade",blackgrass [26]; three weeks after application,0 (Herbicidal rate of 5% or less (almost no effect))
same,"herbicidal effect, J: blackgrass",blackgrass [27],0 (Herbicidal rate of 5% or less (almost no effect))
same,"Herbicidal effect, B: Japanese bulrush",Japanese bulrush [28],0 (Herbicidal rate of 5% or less (almost no effect))
CCCC(=O)Oc1c(C)nn(C)c(=O)c1-c1c(-c2c(OC)cccc2OC)sc2ccc(Cl)cc12 [2-122],herbicidal effect on P: chickweed,chickweed [3]; [32],3 (Herbicidal rate of 40% or more and less than 70%)
same,herbicidal effect on M: velvetleaf,velvetleaf [5]; [32],0 (Herbicidal rate of 5% or less (almost no effect))
same,herbicidal effect on L: windgrass,windgrass [7]; [32],0 (Herbicidal rate of 5% or less (almost no effect))
same,herbicidal effect on G: green foxtail,green foxtail [8]; [32],0 (Herbicidal rate of 5% or less (almost no effect))
same,herbicidal effect on D: Chinese sprangletop,Chinese sprangletop,0 (Herbicidal rate of 5% or less (almost no effect))
same,herbicidal effect on F: southern crabgrass,southern crabgrass [9]; [32],0 (Herbicidal rate of 5% or less (almost no effect))
same,herbicidal effect on H: barnyard grass,barnyard grass [10]; [32],0 (Herbicidal rate of 5% or less (almost no effect))
same,"herbicidal effect rating, C: oval-leafed pondweed",oval-leafed pondweed [29],2 (Herbicidal rate of 20% or more and less than 40%)
same,"herbicidal effect rating, A: late watergrass",late watergrass [30],0 (Herbicidal rate of 5% or less (almost no effect))
same,herbicidal effect on O: lambsquarters,lambsquarters [13]; [32],0 (Herbicidal rate of 5% or less (almost no effect))
same,herbicidal effect on I: wild oat,wild oat [14]; [32],0 (Herbicidal rate of 5% or less (almost no effect))
same,"herbicidal effect rating, B: Japanese bulrush",Japanese bulrush [31],0 (Herbicidal rate of 5% or less (almost no effect))
same,herbicidal effect on N: redroot pigweed,redroot pigweed [16]; [32],0 (Herbicidal rate of 5% or less (almost no effect))
same,herbicidal effect on H: barnyard grass,barnyard grass [19],2 (Herbicidal rate of 20% or more and less than 40%)
same,herbicidal effect on K: Italian ryegrass,Italian ryegrass [22]; [32],0 (Herbicidal rate of 5% or less (almost no effect))
same,herbicidal effect on Q: false cleavers,false cleavers; [32],0 (Herbicidal rate of 5% or less (almost no effect))
same,herbicidal effect on R: persian speedwell,persian speedwell [24]; [32],1 (Herbicidal rate of 5% or more and less than 20%)
same,herbicidal effect on E: rice flat sedge,rice flat sedge,0 (Herbicidal rate of 5% or less (almost no effect))
same,herbicidal effect on J: blackgrass,blackgrass [26]; [32],0 (Herbicidal rate of 5% or less (almost no effect))
